Source: patent publication US20240358885A1, “COMPOSITIONS FOR EMBOLIZATION” (IBERHOSPITEX, S.A., priority 2021, published 2024)

Key:
[1] = Precipitation behavior on slow injection into PBS; assay type: physicochemical; design: key: cohesive (2); cohesive with loss of some material (1); uncontrollable injection or not cohesive (0); conditions: score; 100 ul injected slowly into PBS, 27 G needle
Description: (§1) The resulting solutions were assayed to assess the precipitation behavior and the radiopacity loss.
Embolization formulations were slowly injected into phosphate buffered saline (PBS) using a syringe and a fine needle (27 G). Precipitates of embolizing material were obtained after slow injection (1 minute approximately) of 100 ul of embolization formulations. The precipitation behavior was observed and scored as cohesive (2), cohesive with loss of some material (1) and uncontrollable injection or not cohesive (0).

[2] = Radiopacity loss and homogeneity of precipitates incubated in PBS at 37° C.; assay type: physicochemical; design: key to Homogeneous radiopacity (0-1): non-homegeneous (score=0); homogeneous (score=1); conditions: for Radiopacity loss (0-3) / Homogeneous radiopacity (0-1): score; for Radiopacity loss (0-3): 30 days in PBS at 37° C. vs time=0, 150 mg equivalent iodine/ml with 6% ethylene vinyl alcohol copolymer in DMSO; for Homogeneous radiopacity (0-1): C-arm X-ray; for radiopacity loss in PBS over time (in words): PBS at 37° C., 30 min and 30 days
Description: as §1
Radiopacity loss of precipitates was determined by comparing the radiopacity of freshly prepared samples (time=0) and samples incubated for 30 days in phosphate buffered saline (PBS) at 37° C. PBS was changed daily when possible. Radiopacity was determined using a C-arm X-ray equipment (OEC Fluorostar 7900COMPACT2, General Electric). Radiopacity loss was scored as radiostable (score =0) when the radiopacity loss was below 5%, slightly radiolabile when the radiopacity loss was comprised between 5 to 25% radiopacity loss (score=1), moderately radiolabile when the radiopacity loss was comprised between 26 to 69% radiopacity loss (score=2) and highly radiolabile when the radiopacity loss was comprised between 70to 100% radiopacity loss (score=3). Homogeneity of the radiopacity was also scored as non-homegeneous (score=0) or homogeneous (score=1).
The procedure was as defined above. It can be observed that formulations with high logP values, i.e. above 7.0, are radiostable, while formulations with low logP values, i.e. below 2.0 (logP (LFE13)=−1.6 and logP (LFE23) at pH 7.4=−0.5) lose their radiopacity within minutes.

renal artery = assay: In vivo embolization of porcine kidney; conditions: 0.6 ml injected into the renal artery, 35 kg swine
Description: In this example, a 35 kg swine was prepared for blood vessel embolization using the embolic composition LFE09 prepared according to Example 2. Embolization of the left kidney proceeded by placement of a microcatheter into the kidney. The catheter was advanced into the renal artery, flushed with contrast agent to identify the location and then flushed with DMSO, followed by 0.6 ml of the LFE09 composition described above, followed yet by more DMSO within the catheter. LFE09 composition was quickly injected into the renal artery. […] After 14 days, the right kidney was embolized with 0.6 ml of the same LFE09 formulation and the animal was euthanized.

[3] = Radiopacity loss and homogeneity of precipitates incubated in PBS at 37° C.; assay type: physicochemical; conditions: 30 min of incubation in PBS at 37° C.
[4] = 30 days of incubation in PBS at 37° C.

Row | Structure (SMILES) | Precipitation (0-2) [1] | Radiopacity loss (0-3) [2] | Homogeneous radiopacity (0-1) [2] | % of radiopacity compared to time zero [2, 4] | radiopacity loss in PBS over time (in words) [2] | % of radiopacity compared to time zero ([2]; t zero) | embolization of the kidney (in words) (renal artery) | % of radiopacity compared to time zero [3]
1 | CCCCCCOc1c(I)cc(I)cc1I [LFE01] | 2 | 1 (slightly radiolabile when the radiopacity loss was comprised between 5 to 25% radiopacity loss (score=1)) | 0 | – | – | – | – | –
2 | CCOC(=O)COc1c(I)cc(I)cc1I [LFE02, ethyl 2,4,6-triiodophenoxyacetate] | 1 | 2 (moderately radiolabile when the radiopacity loss was comprised between 26 to 69% radiopacity loss (score=2)) | 0 | – | – | – | – | –
3 | CCCOC(=O)Cn1cc(I)c(=O)c(I)c1 [LFE03] | 2 | 3 (highly radiolabile when the radiopacity loss was comprised between 70to 100% radiopacity loss (score=3)) | 1 | 14.5% | significant radiopacity loss | 100.0% | – | –
4 | CCCCCCOC(=O)Cn1cc(I)c(=O)c(I)c1 [LFE04] | 2 | 2 (moderately radiolabile when the radiopacity loss was comprised between 26 to 69% radiopacity loss (score=2)) | 1 | – | – | – | – | –
5 | COCCOCCOCCOc1c(I)cc(I)cc1I [LFE05] | 2 | 3 (highly radiolabile when the radiopacity loss was comprised between 70to 100% radiopacity loss (score=3)) | 0 | – | – | – | – | –
6 | OCCOCCOCCOc1c(I)cc(I)cc1I [LFE06] | 2 | 2 (moderately radiolabile when the radiopacity loss was comprised between 26 to 69% radiopacity loss (score=2)) | 1 | – | – | – | – | –
7 | COCCOCCOCCOCCOCCOc1c(I)cc(I)cc1I [LFE07] | 2 | 2 (moderately radiolabile when the radiopacity loss was comprised between 26 to 69% radiopacity loss (score=2)) | 1 | – | – | – | – | –
8 | COCCOCCOCCOCCOCCOCCOCCOCCOCCOCCOCCOCCOc1c(I)cc(I)cc1I [LFE08] | 0 | 2 (moderately radiolabile when the radiopacity loss was comprised between 26 to 69% radiopacity loss (score=2)) | 1 | 29.3% | significant radiopacity loss | 100.0% | – | –
9 | COCCOCCOCCOC(=O)COc1c(I)cc(I)cc1I [LFE09] | 2 | 3 (highly radiolabile when the radiopacity loss was comprised between 70to 100% radiopacity loss (score=3)) | 1 | 64.7% | significant radiopacity loss | 100.0% | the upper pole of the kidney was blocked | –
10 | O=C(COc1c(I)cc(I)cc1I)OCCOCCOCCO [LFE10] | 2 | 3 (highly radiolabile when the radiopacity loss was comprised between 70to 100% radiopacity loss (score=3)) | 1 | – | – | – | – | –
11 | CC(=O)OCCOCCOCCOc1c(I)cc(I)cc1I [LFE12] | 2 | 2 (moderately radiolabile when the radiopacity loss was comprised between 26 to 69% radiopacity loss (score=2)) | 0 | – | – | – | – | –
12 | CN(C(=O)CO)c1c(I)c(C(=O)NCC(O)CO)c(I)c(C(=O)NCC(O)CO)c1I (centres unmarked) [LFE13, iomeprol, reference compound] | 0 | 3 (highly radiolabile when the radiopacity loss was comprised between 70to 100% radiopacity loss (score=3)) | 1 | 11.9% | – | 100.0% | – | 29.0%
13 | CC(=O)OCC(=O)N(C)c1c(I)c(C(=O)NCC(COC(C)=O)OC(C)=O)c(I)c(C(=O)NCC(COC(C)=O)OC(C)=O)c1I (centres unmarked) [LFE14] | 2 | 3 (highly radiolabile when the radiopacity loss was comprised between 70to 100% radiopacity loss (score=3)) | 1 | – | – | – | – | –
14 | O=C(OCCOCCOCCOCCOCCO)c1cc(I)cc(I)c1I [LFE17] | 2 | 2 (moderately radiolabile when the radiopacity loss was comprised between 26 to 69% radiopacity loss (score=2)) | 1 | – | – | – | – | –
15 | COCCOCCOCCOCCOCCOCc1cc(I)cc(I)c1I [LFE19] | 2 | 1 (slightly radiolabile when the radiopacity loss was comprised between 5 to 25% radiopacity loss (score=1)) | 1 | – | – | – | – | –
16 | COCCOCCOCCOCc1cc(I)cc(I)c1I [LFE20] | 2 | 1 (slightly radiolabile when the radiopacity loss was comprised between 5 to 25% radiopacity loss (score=1)) | 0 | – | – | – | – | –
17 | CCCCCCOC(=O)c1c(I)c(NC(C)=O)c(I)c(NC(C)=O)c1I [LFE21] | 2 | 1 (slightly radiolabile when the radiopacity loss was comprised between 5 to 25% radiopacity loss (score=1)) | 1 | 91.4% | significant radiopacity loss | 100.0% | – | –
18 | CCCOC(=O)c1c(I)c(NC(C)=O)c(I)c(NC(C)=O)c1I [LFE22] | 2 | 1 (slightly radiolabile when the radiopacity loss was comprised between 5 to 25% radiopacity loss (score=1)) | 1 | – | – | – | – | –
19 | CC(=O)Nc1c(I)c(NC(C)=O)c(I)c(C(=O)O)c1I [LFE23, Diatrizoic acid, reference compound] | 1 | 3 (highly radiolabile when the radiopacity loss was comprised between 70to 100% radiopacity loss (score=3)) | 1 | 19.0% | – | 100.0% | – | 35.6%
20 | CCCCC(CC)COc1c(I)cc(I)cc1I (centres unmarked) [LFE24] | 1 | 0 (radiostable (score =0) when the radiopacity loss was below 5%) | 0 | 101.9% | complete radiostability | 100.0% | – | 101.3%
